Assay results published in PMC12627862, “Therapeutic targeting of endothelial calcium signaling accelerates the resolution of lung injury” (Signal Transduction and Targeted Therapy, 2025).
Starred links: 1 amine or outer side, 2 acyl side, 3 side chain; linkers in the order of their positions; H or OH if unused. Positions of bridges follow the written chain, without caps; N, C: chain ends. Non-standard residues stand in square brackets, D forms with d. Residues, ends and D or L forms follow the SMILES beside them. ξ: configuration not given here. X5 = O=C([C@@H]1[C@@H]2CCCC[C@@H]2CN1[*:1])[*:2]; Leu(4,5-dehydro) = C=C(C)C[C@H](N)C(=O)O; Oic = O=C(O)[C@@H]1C[C@@H]2CCCC[C@@H]2N1; X4 = C=C(C)C[C@@H](N[*:1])C(=O)[*:2]; dVal(3-OH) = CC(C)(O)[C@@H](N)C(=O)O; Val(3-OH) = CC(C)(O)[C@H](N)C(=O)O; tBuAla = CC(C)(C)C[C@H](N)C(=O)O; R5 = C=CCCC[C@@](C)(N)C(=O)O; X1 = O=C(CC(O)CN[*:1])[*:2]; 4Amb = NCc1ccc(C(=O)O)cc1; ξP = O=C(O)C1CCCN1

Legend:
[1] = system: CD1 mice, cecal ligation and puncture; experiment: Polymicrobial sepsis model (CLP); format: in vivo, mouse; conditions: CLP 18-gauge; monotherapy: VT-109 0.5 µmol/kg bw or enrofloxacin 5 mg/kg bw
[2] = Aggregation / solubility at 1 mM; format: physicochemical; conditions: summary calls it solubility at 1mM
Description: (§1) The solubilities of the synthesized compounds were determined experimentally (Supplementary Table 2). Most compounds were highly soluble at a 1 mM concentration; however, some compounds tended to form aggregates. These compounds were excluded from further studies. In addition, we experimentally determined the lipophilicity of each compound, logP(oct/wat)=log(soluteoct/solutewat ), which is the partition coefficient of a compound between aqueous (water) and lipophilic (octanol) phases (Supplementary Table 2).

[3] = Lipophilicity of peptides, logP(oct/wat); format: physicochemical
Description: as §1
Lipophilicity of peptides. Two separate solutions were obtained: an aqueous phosphate buffer with saturated n-octanol, and an n-octanol solution with saturated phosphate buffer. Peptides were then dissolved and diluted in the phosphate buffer. Different partitions were then made with different n-octanol to water ratio before shaking for an hour at room temperature. The aqueous phase and n-octanol were allowed to equilibrate, and each phase was extracted and analyzed for peptide concentrations. The ratio of peptide concentration in n-octanol to that in water is expressed as log(P).

[4] = biological target: EB3 interactions with IP3R3-GFP (Homo sapiens, UniProt Q9UPY8); experiment: Competitive binding: inhibition of EB3 interaction with IP3R3-GFP in vitro; format: biochemical; conditions: for inhibition at 0.25 µM: 250 nM
Sequence of EB3 interactions with IP3R3-GFP (Q9UPY8 whole entry): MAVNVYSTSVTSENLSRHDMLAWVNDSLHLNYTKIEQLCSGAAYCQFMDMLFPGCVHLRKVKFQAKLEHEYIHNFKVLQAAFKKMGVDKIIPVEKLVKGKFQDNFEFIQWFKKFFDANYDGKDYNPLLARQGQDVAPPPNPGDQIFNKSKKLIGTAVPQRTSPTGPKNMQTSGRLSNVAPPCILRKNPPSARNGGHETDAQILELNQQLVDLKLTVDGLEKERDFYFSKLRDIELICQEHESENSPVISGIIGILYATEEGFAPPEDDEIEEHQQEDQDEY
Text: We tested the efficacy of twenty-three compounds in inhibiting EB3 interactions with IP3R3-GFP via an in vitro approach developed by us[12],[13]. […] Guided by NMR studies, we predicted the binding pose of 109 to EB3 via AutoDock Vina[13],[24],[25].

Row | Compound | Aggregation at 1mM [2] | logD [3] | inhibition at 0.25 µM [4] [%] | Competitive Binding at 250nM (% Inhibition) [4] | survival [1]
1 | CCN1CCN(c2cc3c(cc2F)c(=O)c(C(=O)O)cn3C2CC2)CC1 [enrofloxacin, reference compound] |  |  |  |  | neither antibiotics nor VT-109 monotherapy (0.5 µmol/kg bw) significantly improved survival
2 | CC(C)(C)C[C@H](NC(=O)CC(O)CNC(=O)[C@@H]1C[C@@H]2CCCC[C@@H]2N1C(=O)[C@H](CC(C)(C)C)NC(=O)c1ccc(CNC(=O)[C@H](N)C(C)(C)O)cc1)C(=O)O (stereo partly drawn) [compound 103, (2S)-2-(4-((2S,3aS,7aS)-1-((S)-2-(4-(((R)-2-amino-3-hydroxy-3-methylbutanamido)methyl)benzamido)-4,4-dimethylpentanoyl)octahydro-1H-indole-2-carboxamido)-3-hydroxybutanamido)-4,4-dimethylpentanoic acid] (H-[dVal(3-OH)][4Amb][tBuAla][Oic][X1][tBuAla]-OH) | weak signal | 0.44 | 12 |  | 
3 | CC[C@H](C)[C@H](NC(=O)[C@@H](NC(=O)[C@@H]1CCCN1C(=O)[C@@H](NC(=O)c1ccc(CNC(=O)[C@H](NC(=O)[C@@H](N)Cc2ccccc2)C(C)(C)O)cc1)[C@@H](C)CC)[C@@H](C)O)C(=O)O [compound 021, (4-(((R)-2-((S)-2-amino-3-phenylpropanamido)-3-hydroxy-3-methylbutanamido)methyl)benzoyl)-L-isoleucyl-L-prolyl-L-threonyl-L-isoleucine] (H-F[dVal(3-OH)][4Amb]IPTI-OH) | weak signal | -0.24 | 35 |  | 
4 | C=C(C)C[C@H](NC(=O)c1ccc(CNC(=O)CC(O)CNC(=O)[C@H](N)Cc2ccccc2)cc1)C(=O)N1[C@H](C(=O)NCC(O)CC(=O)N[C@@H](CC(C)(C)C)C(=O)O)C[C@@H]2CCCC[C@@H]21 (stereo partly drawn) [compound 102, (2S)-2-(4-((2S,3aS,7aS)-1-((2S)-2-(4-((4-((R)-2-amino-3-phenylpropanamido)-3-hydroxybutanamido)methyl)benzamido)-4-methylpent-4-enoyl)octahydro-1H-indole-2-carboxamido)-3-hydroxybutanamido)-4,4-dimethylpentanoic acid.] | weak signal | 0.2 |  | no inhibition | 
5 | C=C(C)C[C@H]1NC(=O)[C@](C)(NC(=O)[C@@H](CCC(=O)O)NC(=O)[C@H](N)[C@H](C)O)CCC/C=C\CCC[C@](C)(C(=O)N[C@H](C(=O)O)[C@@H](C)CC)NC(=O)[C@H]([C@@H](C)O)NC(=O)C2CCCN2C1=O (stereo partly drawn) [compound 052, (4R)-4-((2R,3S)-2-amino-3-hydroxybutanamido)-5-(((3S,6R,15R,18R,Z)-6-(((1S,2S)-1-carboxy-2-methylbutyl)carbamoyl)-3-((R)-1-hydroxyethyl)-6,15-dimethyl-18-(2-methylallyl)-1,4,16,19-tetraoxo-2,3,4,5,6,7,8,9,12,13,14,15,16,17,18,19,21,22,23,23a-icosahydro-1H-pyrrolo[1,2-d][1,4,7,10]tetraazacyclohenicosin-15-yl)amino)-5-oxopentanoic acid] (H-[dT][dE][R5][X4][ξP]T[R5]I-OH; staple (Z) 3-7) | 0.17 | -0.07 | 73 |  | 
6 | CC[C@H](C)[C@@H]1NC(=O)[C@H]([C@@H](C)O)NC(=O)[C@@H]2CCCN2C(=O)[C@H]([C@@H](C)CC)NC(=O)[C@H](CCC(=O)O)NC(=O)[C@H]([C@@H](C)O)NC(=O)[C@H](Cc2ccccc2)NC(=O)CNC(=O)CNC(=O)[C@H]([C@@H](C)O)NC(=O)CC[C@@H](C(=O)O)NC(=O)[C@@H]2CCCN2C(=O)[C@H](CC(C)C)NC1=O [compound 013, (6S,9S,12S,15S,24S,29S,31aS,37S,40S,43S,45aS)-15-benzyl-6,40-di((S)-sec-butyl)-9-(2-carboxyethyl)-12,24,43-tris((R)-1-hydroxyethyl)-37-isobutyl-5,8,11,14,17,20,23,26,31,36,39,42,45-tridecaoxotetratetracontahydro-5H-dipyrrolo[2,1-c:2',1'-o][1,4,7,10,13,16,19,22,25,28,31,34,37]tridecaazacyclohentetracontine-29-carboxylic acid] (TGGFTEIPTILPE-OH; lactam N-13) |  | -0.27 | 51 |  | 
7 | CC[C@H](C)[C@@H]1NC(=O)[C@H]([C@@H](C)O)NC(=O)[C@@H]2CCCN2C(=O)[C@H]([C@@H](C)CC)NC(=O)[C@H](CCC(=O)O)NC(=O)[C@H]([C@@H](C)O)NC(=O)[C@H](Cc2ccccc2)NC1=O [compound 012, 3-((3S,6S,9S,12S,15S,18S,23aS)-9-benzyl-6,18-di((S)-sec-butyl)-3,12-bis((R)-1-hydroxyethyl)-1,4,7,10,13,16,19-heptaoxodocosahydro-1H-pyrrolo[1,2-a][1,4,7,10,13,16,19]heptaazacyclohenicosin-15-yl)propanoic acid.] (cyclo(EIPTIFT)) |  | -0.04 | 49 |  | 

Second part, led by results:

Row | Aggregation at 1mM [2] | logD [3] | inhibition at 0.25 µM [4] [%] | Competitive Binding at 250nM (% Inhibition) [4] | Compound | survival [1]
8 | weak signal | -0.89 | 40 |  | C=C(C)C[C@H](NC(=O)[C@H](CCC(=O)O)NC(=O)[C@H](NC(=O)[C@H](N)Cc1ccccc1)C(C)(C)O)C(=O)N1CCC[C@H]1C(=O)N[C@H](C(=O)N[C@H](C(=O)O)[C@@H](C)CC)[C@@H](C)O [compound 036, (S)-4-((R)-2-((R)-2-amino-3-phenylpropanamido)-3-hydroxy-3-methylbutanamido)-5-(((S)-1-((S)-2-(((2S,3R)-1-(((1S,2S)-1-carboxy-2-methylbutyl)amino)-3-hydroxy-1-oxobutan-2-yl)carbamoyl)pyrrolidin-1-yl)-4-methyl-1-oxopent-4-en-2-yl)amino)-5-oxopentanoic acid] (H-[dF][dVal(3-OH)]E[Leu(4,5-dehydro)]PTI-OH) | 
9 | weak signal | -1 | 51 |  | C=C(C)C[C@H](NC(=O)[C@H](CCC(=O)O)NC(=O)[C@@H](NC(=O)[C@@H](N)Cc1ccccc1)[C@@H](C)O)C(=O)N1CCC[C@H]1C(=O)N[C@H](C(=O)N[C@H](C(=O)O)[C@@H](C)CC)[C@@H](C)O [compound 019, (S)-4-((2S,3R)-2-((S)-2-amino-3-phenylpropanamido)-3-hydroxybutanamido)-5-(((S)-1-((S)-2-(((2S,3R)-1-(((1S,2S)-1-carboxy-2-methylbutyl)amino)-3-hydroxy-1-oxobutan-2-yl)carbamoyl)pyrrolidin-1-yl)-4-methyl-1-oxopent-4-en-2-yl)amino)-5-oxopentanoic acid] (H-FTE[Leu(4,5-dehydro)]PTI-OH) | 
10 | 0.18 | -0.3 | 48 |  | CC[C@H](C)[C@H](NC(=O)[C@@H](NC(=O)[C@@H]1CCCN1C(=O)[C@H](CC(C)(C)C)NC(=O)[C@@H](CCC(=O)O)NC(=O)[C@@H](NC(=O)[C@@H](N)Cc1ccccc1)C(C)(C)O)[C@@H](C)O)C(=O)O [compound 016, (R)-4-((S)-2-((S)-2-amino-3-phenylpropanamido)-3-hydroxy-3-methylbutanamido)-5-(((S)-1-((S)-2-(((2S,3R)-1-(((1S,2S)-1-carboxy-2-methylbutyl)amino)-3-hydroxy-1-oxobutan-2-yl)carbamoyl)pyrrolidin-1-yl)-4,4-dimethyl-1-oxopentan-2-yl)amino)-5-oxopentanoic acid] (H-F[Val(3-OH)][dE][tBuAla]PTI-OH) | 
11 |  | -0.71 | 52 |  | C=C(C)C[C@H](NC(=O)[C@@H](NC(=O)[C@@H]1CCCN1C(=O)[C@@H](CC(=C)C)NC(=O)[C@H](CCC(=O)O)NC(=O)[C@H](NC(=O)[C@H](N)Cc1ccccc1)C(C)(C)O)[C@@H](C)O)C(=O)O [compound 049, (S)-2-((2S,3R)-2-((S)-1-((R)-2-((S)-2-((R)-2-((R)-2-amino-3-phenylpropanamido)-3-hydroxy-3-methylbutanamido)-4-carboxybutanamido)-4-methylpent-4-enoyl)pyrrolidine-2-carboxamido)-3-hydroxybutanamido)-4-methylpent-4-enoic acid.] (H-[dF][dVal(3-OH)]E[X4]PT[Leu(4,5-dehydro)]-OH) | 
12 |  | 0.67 | 50 |  | CC[C@H](C)[C@H](NC(=O)[C@H](NC(=O)[C@@H]1[C@@H]2CCCC[C@@H]2CN1C(=O)[C@H](CC(C)(C)C)NC(=O)[C@H](CCC(=O)O)NC(=O)[C@H](NC(=O)[C@@H](N)Cc1ccccc1)C(C)(C)O)C(C)(C)O)C(=O)O [compound 040, (S)-4-((R)-2-((S)-2-amino-3-phenylpropanamido)-3-hydroxy-3-methylbutanamido)-5-(((S)-1-((1S,3aS,7aR)-1-(((R)-1-(((1S,2S)-1-carboxy-2-methylbutyl)amino)-3-hydroxy-3-methyl-1-oxobutan-2-yl)carbamoyl)octahydro-2H-isoindol-2-yl)-4,4-dimethyl-1-oxopentan-2-yl)amino)-5-oxopentanoic acid.] (H-F[dVal(3-OH)]E[tBuAla][X5][dVal(3-OH)]I-OH) | 
